Common to all, as to format: in vivo, human
The subject of one assay is trained panelists. As to the kind of experiment: Cooling threshold in water, triangle test by trained panelists. As to conditions: determined in water. The method, then: Prior to sensory analysis, the purity of the synthetic taste compounds was checked by GC/MS. Determination of the cooling, as well as the aroma threshold, of the compounds was performed by trained panelists. Nasal odor thresholds (Guth, H.; Grosch, W. J. Am. Oil Chem. Soc. 1993, 70, 513-518), as well as cooling thresholds, were determined by triangle tests using tap water as the solvent. The samples were presented in order of increasing concentrations and the threshold values evaluated in three separate sessions were averaged. The values between individuals and separate sessions differed by not more than one dilution step.

Assay [1] can be described thus: Cooling threshold in milk chocolate. To be noted: for Cooling effect [mg/100 g chocolate]: cooling threshold in milk chocolate. The source says:
In an additional experiment, the cooling thresholds of 3-MPC, 5-MPC, MPF, 2(5H)-MPF and 2(5H)-DMPF have been determined in chocolate. […] The ratio for compounds of the invention is typically less than that of menthol, preferably less than 9, more preferably less than about 3. In other embodiments, the cooling threshold to odor threshold ratio is less than about 1 or less than about 0.1.

A short description of assay [2]: Tasting of cooling compounds in Vittel mineral water. Here is the method: Solutions of 10%-menthol, 10% 5-MPC and 10% MPF, respectively, in ethanol were diluted with Vittel™ mineral water. The solutions were tasted and compared with pure Vittel™ water.
In another assay the test system is mouth cavity. In words: Evaluation of cooling substances in orange juice. The method, then:
Several cooling substances were evaluated in orange juice.

Another assay concerns mouth. As to the kind of experiment: Taste testing of sugar confectionery (candies). The method, then: Sugar (100 g) was heated together with water (15 g) in a beaker on a hot plate. After the mixture became a clear solution, the sugar syrup was heated further until it became viscous due to the evaporation of water. Then 5-MPC (20 mg) and MPF (100 mg), respectively, were added. The viscous liquid was then poured into molds (3 g each) and cooled down to room temperature. The candies, which had been formed in the molds, were demolded and used for taste testing.

The test system of assay [3] is skin surface on the inside of the right forearm. As to the kind of experiment: Topical testing of cooling intensity on the forearm. To be noted: scale 0 (no effect) to 5 (very strong). The method, then:
Topical thresholds of cooling compounds 5-MPF, 2(5H)-DMPF, 2(5H)-MPF and MPF were determined as follows: An aliquot (0.5 mL) of a solution, […], was applied to a circular area (10 cm^2) of the skin surface on the inside of the right forearm, midway between the wrist and the elbow, and were rubbed for 1 min. In parallel, an aliquot (0.5 mL) of pure tap water was applied as the blank onto the skin of the left forearm. After 1 min, the skin was dried. A panel of 10 subjects (male and female) were asked to rank the cooling intensity on a scale from 0 (no effect) to 5 (very strong). The values evaluated in three different sessions at two days were averaged. The values between individuals and separate sessions differed not more than 2 scores.

A short description of a further assay: Application in ice cream. To be noted: 20 mg/kg in ice cream. The method, then:
Full-fat cream (250 g), milk (250 ml) and sugar (100 g) were mixed and stirred until the sugar was dissolved. Then the mixture was poured into an ice cream machine (Il Gelataio Super, Simac Inc., Gessate, Italy) and frozen within 30 minutes while stirring. In the same way, ice cream was prepared with 5-MPC (20 mg/kg). […] The cool refreshing impression of this ice cream persisted much longer than with the unflavored reference compound.

`CC1=C(N2CCCC2)C(=O)CO1` [MPF, 5-Methyl-4-(1-pyrrolidinyl)-3(2H)-furanone] gave a Cooling threshold in the assay on trained panelists of 1.5 to 3.0 mg/kg. The “Cooling effect [mg/100 g chocolate]” value in assay [1] was 0.8-1.5 mg/100 g chocolate. Besides, the “Flavor: cooling effect” value in assay [2] (400 mg/L in Vittel mineral water) is reported as “Pronounced cooling effect”. The cooling effect result in the assay on mouth cavity (1000 mg/L in orange juice) is on record as “pronounced cooling effect”. Further, the “cooling effect in the mouth” value in the assay on mouth (100 mg added to syrup of 100 g sugar) is “pronounced cooling effect”. The Cooling intensity in assay [3] (0.00020 % in tap water), in assay [3] (0.00039 % in tap water), in assay [3] (0.00078 % in tap water), in assay [3] (0.00156 % in tap water), in assay [3] (0.00313 % in tap water) and in assay [3] (0.00625 % in tap water) was 0 in each case. For the same compound, the Cooling intensity amounted to 0 in assay [3] (0.0125 % in tap water); 0 in assay [3] (0.025 % in tap water); 1 in assay [3] (0.05 % in tap water); 2 in assay [3] (0.1 % in tap water); 4 in assay [3] (0.2 % in tap water); 5 in assay [3] (0.5 % in tap water). In assay [3] (1.0 % in tap water), the Cooling intensity is listed as 5.

For the compound `CC1=C(N2CCCC2)C(=O)CC1` [3-MPC, 3-Methyl-2-(1-pyrrolidinyl)-2-cyclopenten-1-one], in the assay with trained panelists, the Cooling threshold lay in the range of 29 to 44 mg/kg. In addition, the “Cooling effect [mg/100 g chocolate]” value in assay [1] was 38-63 mg/100 g chocolate.

In turn, `CC1=C(N2CCCCC2)C(=O)CC1` [3-MPipC, 3-Methyl-2-(1-piperidinyl)-2-cyclopenten-1-one] returned a Cooling threshold in the assay with trained panelists of 60 to 100 mg/kg.

Take `CC1CC=C(N2CCCCC2)C1=O` (stereo not drawn) [5-MpipC, 5-Methyl-2-(1-piperidinyl)-2-cyclopenten-1-one]: the Cooling threshold in the assay on trained panelists is 16 to 24 mg/kg.

With `CC1=C(N2CCCC2)C(=O)OC1C` (stereo not drawn) [2(5H)-DMPF, 4,5-Dimethyl-3-(1-pyrrolidinyl)-2(5H)-furanone], in the assay on trained panelists, the Cooling threshold fell in the range of 2.0 to 4.0 mg/kg. The “Cooling effect [mg/100 g chocolate]” value in assay [1] is 5.0-7.5 mg/100 g chocolate. Besides, the Cooling intensity is reported as 0 in assay [3] (0.00625 % in tap water); 1 in assay [3] (0.0125 % in tap water); 3 in assay [3] (0.025 % in tap water); 5 in assay [3] (0.05 % in tap water); 5 in assay [3] (0.1 % in tap water); 5 in assay [3] (0.2 % in tap water). For the same compound, the Cooling intensity in assay [3] (0.5 % in tap water) and in assay [3] (1.0 % in tap water) was 5 each time.

`COC(=O)C1CCCN1C1=CCC(C)C1=O` (stereo not drawn) [5-MMeproC, 5-Methyl-2-(2-methoxycarbonyl-1-pyrrolidinyl)-2-cyclopentene-1-one]: in the assay with trained panelists, the Cooling threshold fell in the range of 112 to 188 mg/kg.

In turn, `CCC1CC=C(N2CCCC2)C1=O` (stereo not drawn) [5-EPC, 5-Ethyl-2-(1-pyrrolidinyl)-2-cyclopenten-1-one] returned a Cooling threshold in the assay on trained panelists of 27 to 43 mg/kg.

Take `CC1=C(N2CCCC2)C(=O)OC1` [2(5H)-MPF, 4-Methyl-3-(1-pyrrolidinyl)-2(5H)-furanone]: the Cooling threshold in the assay with trained panelists fell in the range of 0.02 to 0.06 mg/kg. The “Cooling effect [mg/100 g chocolate]” value in assay [1] is reported as 0.25-0.5 mg/100 g chocolate. Moreover, the Cooling intensity was determined as 0 in assay [3] (0.00020 % in tap water); 1 in assay [3] (0.00039 % in tap water); 2 in assay [3] (0.00078 % in tap water); 3 in assay [3] (0.00156 % in tap water); 5 in assay [3] (0.00313 % in tap water); 5 in assay [3] (0.00625 % in tap water).

In turn, `CC1=C(N2CCCC2C(=O)O)C(=O)CC1` (stereo not drawn) [3-MProC, 3-Methyl-2-(2-carboxy-1-pyrrolidinyl)-2-cyclopentene-1-one] had a Cooling threshold with trained panelists of 490 to 735 mg/kg.

As to `CC1CC=C(N2CCCC2)C1=O` (stereo not drawn) [5-MPC, 5-Methyl-2-(1-pyrrolidinyl)-2-cyclopenten-1-one], the Cooling threshold in the assay with trained panelists fell in the range of 4.5 to 9 mg/kg. In addition, the “Cooling effect [mg/100 g chocolate]” value in assay [1] was 2.3-3.7 mg/100 g chocolate. The “fold higher cooling threshold than 2(5H)-MPF” value in assay [1] (in chocolate, compared with 2(5H)-MPF) amounted to 8 fold. For the same compound, the cooling effect result with mouth cavity (200 mg/L in orange juice) was “strong cooling effect”; in “Application in ice cream” it was “pronounced long lasting cooling effect”. The “cooling effect in the mouth” value in the assay on mouth (20 mg added to syrup of 100 g sugar) is listed as “pronounced cooling effect”. Further, the Cooling intensity in assay [3] (0.00020 % in tap water), in assay [3] (0.00039 % in tap water), in assay [3] (0.00078 % in tap water), in assay [3] (0.00156 % in tap water), in assay [3] (0.00313 % in tap water) and in assay [3] (0.00625 % in tap water) was 0 each time. The Cooling intensity is 0 in assay [3] (0.0125 % in tap water); 0 in assay [3] (0.025 % in tap water); 0 in assay [3] (0.05 % in tap water); 0 in assay [3] (0.1 % in tap water); 1 in assay [3] (0.2 % in tap water); 3 in assay [3] (0.5 % in tap water). In addition, the Cooling intensity in assay [3] (1.0 % in tap water) was found to be 5.

In the assay with trained panelists, `CC1C=C(N2CCCC2)C(=O)C1C` (stereo not drawn) [4,5-DMPC, 4,5-Dimethyl-2-(1-pyrrolidinyl)-2-cyclopenten-1-one] had a Cooling threshold of 68 to 113 mg/kg.

Compound `CC1=C(N2CCCC2)C(=O)C(C)O1` (stereo not drawn) [DMPF, 2,5-Dimethyl-4-(1-pyrrolidinyl)-3(2H)-furanone] gave a Cooling threshold with trained panelists of 100 to 140 mg/kg.

As to `CC1=C(N2CCCC2)C(=O)CC1C` (stereo not drawn) [3,4-DMPC, 3,4-Dimethyl-2-(1-pyrrolidinyl)-2-cyclopenten-1-one], the Cooling threshold in the assay with trained panelists was in the range of 51 to 86 mg/kg.

`CC1=C(N2CCCC2)C(=O)CCC1` [3-MPCH, 3-Methyl-2-(1-pyrrolidinyl)-2-cyclohexen-1-one] came in with a Cooling threshold in the assay with trained panelists of 90 to 150 mg/kg.

As to `CC1CCC=C(N2CCCC2)C1=O` (stereo not drawn) [6-MPCH, 6-Methyl-2-(1-pyrrolidinyl)-2-cyclohexen-1-one], the Cooling threshold in the assay with trained panelists was in the range of 27 to 45 mg/kg.

In the assay on trained panelists, `CC1=C(N2CCCC2)C(=O)C(C)C1` (stereo not drawn) [3,5-DMPC, 3,5-Dimethyl-2-(1-pyrrolidinyl)-2-cyclopenten-1-one] showed a Cooling threshold of 33 to 54 mg/kg.

For the compound `CCN(CC)C1=CCC(C)C1=O` (stereo not drawn) [5-MdeaC, 5-Methyl-2-diethylamino-2-cyclopenten-1-one], the Cooling threshold with trained panelists fell in the range of 12 to 20 mg/kg.

In the assay with trained panelists, `CC1CCC(C(C)C)C(O)C1` (single isomer, unassigned; (-)) [(−)-Menthol, reference compound] had a Cooling threshold of 0.9 to 1.9 mg/kg. The “Flavor: cooling effect” value in assay [2] (10 mg/L in Vittel mineral water) is listed as “Pronounced cooling effect, strong”. For the same compound, in the assay on mouth cavity (20 mg/L in orange juice), the cooling effect entry is on record as “strong cooling effect”.

For the origin of these results see patent publication US20040052828A1, “Consumable product including consumable component and alpha-keto enamine derivatives” (priority 2000, published 2004).
